*1 amine or outer side, *2 acyl side, *3 side chain or, on linkers, in order; H or OH if unused. Where a SMILES comes first, the peptide text is derived from it. Bridges are numbered along the chain shown (N, C = ends). [ ]: non-standard residue; d: D form. X1 = O=C(O)CCCCCCCCCCCCCCCCCCC(=O)N[C@@H](CCCCNC(=O)COCCOCCNC(=O)COCCOCCNC(=O)CCC(=O)N(CCNC(=O)C[*:1])CCNC(=O)C[*:2])C(=O)O; Phe(2-F) = N[C@@H](Cc1ccccc1F)C(=O)O; Iva = CC[C@](C)(N)C(=O)O; Aib = CC(C)(N)C(=O)O
Key:
GLP-1R [1] = molecular target: T1, GLP-1R (Homo sapiens, UniProt P43220); assay: CreLuc method (CRE-luciferase reporter), HEK293/pGM-CREB-L-Luc/GLP-1R pool; type: cell-based; settings: 6 h incubation, read-out: EC50 (pM) for each receptor GLP-1R
T1 construct: expressed in transfected cells
In short: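 Stable HEK293 pools co-expressing each receptor with a CRE-luciferase reporter were plated at 20,000 cells/well in freestyle medium and treated with compound dilution series for 6 h at 37 °C. Luminescence was read with ONE-GLO to derive EC50.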

in vivo = assay: in vivo; set-up: species or system male SD rats; settings: rat
Protocol: The pharmacokinetic behavior of target peptide derivatives (or polypeptide derivatives) prepared in Example 1 and Example 2, i.e., TG1-TG94 in rodents was tested. The specific steps are as follows:
The target peptide derivatives (TG1-TG94) to be tested were administered to male SD rats via subcutaneous injection (SC, 3 mg/kg; drug vehicle: PBS, concentration: 1.5 mg/mL; administration volume: 2 mL) and intravenous injection (IV, 1 mg/kg; drug vehicle: PBS, concentration: 0.5 mg/mL; administration volume: 2 mL) as a single dose, respectively. Whole blood samples were collected from the jugular vein or other appropriate vein at the following time points after administration: for SC, 15 min, 30 min, 1 h, 2 h, 4 h, 6 h, 8 h, 24 h, 48 h, 72 h, 96 h, 120 h, and 168 h; for IV, 5 min, 15 min, 30 min, 1 h, 2 h, 4 h, 8 h, 24 h, 48 h, 72 h, 96 h, 120 h, and 168 h. 0.2 mL of blood was collected and transferred into a labeled EDTA-K2 anticoagulant tube. The tube was gently inverted to ensure thorough mixing of the anticoagulant (EDTA-K2) with the blood and immediately placed on wet ice. Plasma separation was performed as soon as possible by centrifugation under the following conditions: 4°C, 6800xg, for 6 min. The plasma samples were stored in a refrigerator at no higher than -20°C and used for analysis when needed.
Under the condition of yellow light in an ice-water bath, except for blank samples, 300 µL of precipitant containing an internal standard was added to a 96-well plate containing 20 µL of standard curve sample, quality control sample, or unknown sample; 300 µL of acetonitrile was added to the blank sample. The mixture was vortexed, mixed well, and then centrifuged. 150 µL of the supernatant after centrifugation was transferred to a new 96-well plate, and 150 µL of ultrapure water was added and mixed well. The above samples were subjected to quantitative analysis using LC-MS analysis with XB-C18 (2.1 * 100 mm, 3 µm) chromatography for gradient elution. The mobile phases used were: mobile phase A = 0.1% formic acid-water; mobile phase B = acetonitrile. Phoenix WinNonlin software was used to calculate the pharmacokinetic parameters. […] Table 5A: Pharmacokinetic parameters of target peptide derivatives

GLP-1R [2] = molecular target: T1, GLP-1R; assay: cell-based; type: cell-based; settings: for EC50: GLP-1R CreLuc
Protocol: The steps are as follows:
The stably transfected cell line HEK293/pGM-CREB-L-Luc/GLP-1R pool was constructed. […] The corresponding test cells were selected, digested (for 1 min), dispersed by pipetting, and centrifuged (1000 rpm, 5 min). The culture medium was discarded, and the cells were suspended using Freestyle culture medium, centrifuged and counted. The cells were diluted to a cell density of 5 x 10^5 cells/mL using freestyle culture medium (0% FBS) and culture medium containing 10% FBS, respectively. The cells were then added to the detection wells of a 384-well plate (40 µL/20,000 cells/well). Echo was used to add the corresponding analyte dilution series. The cell plate was incubated at 37°C and 5% CO2 for 6 h, and then ONE-GLO (20 µL/well) was added for detection. It was kept in the dark for 3 min, and then a chemiluminescent microplate reader was used for determination. The plate was read within 30 min, and the determination results were recorded. […]

T1 sequence (P43220 24-463, species assumed): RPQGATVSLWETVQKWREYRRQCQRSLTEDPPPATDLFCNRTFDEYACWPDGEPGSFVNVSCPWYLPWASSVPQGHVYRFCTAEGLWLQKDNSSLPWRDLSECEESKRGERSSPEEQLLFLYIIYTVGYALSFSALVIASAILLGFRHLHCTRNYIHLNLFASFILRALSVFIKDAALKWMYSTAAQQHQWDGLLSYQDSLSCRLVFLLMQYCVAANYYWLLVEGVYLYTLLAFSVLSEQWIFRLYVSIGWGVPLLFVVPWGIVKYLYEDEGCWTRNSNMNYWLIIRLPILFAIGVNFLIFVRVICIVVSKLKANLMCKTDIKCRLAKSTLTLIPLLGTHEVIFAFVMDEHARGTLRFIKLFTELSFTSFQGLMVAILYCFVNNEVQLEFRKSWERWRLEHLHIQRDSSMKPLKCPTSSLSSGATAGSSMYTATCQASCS

CC[C@H](C)[C@@H]1NC(=O)[C@H](Cc2ccccc2)NC(=O)[C@@H](NC(=O)C(C)(C)NC(=O)[C@H](CCC(N)=O)NC(=O)[C@H](C)NC(=O)[C@H](CCCCNC(C)=O)NC(=O)[C@H](CCCCN)NC(=O)[C@H](CC(=O)O)NC(=O)[C@H](CC(C)C)NC(=O)[C@](C)(CC)NC(=O)[C@@H](NC(=O)[C@H](CO)NC(=O)[C@H](Cc2ccc(O)cc2)NC(=O)[C@H](CC(=O)O)NC(=O)[C@H](CO)NC(=O)[C@@H](NC(=O)[C@H](Cc2ccccc2F)NC(=O)[C@@H](NC(=O)CNC(=O)[C@H](CCC(N)=O)NC(=O)C(C)(C)NC(=O)[C@@H](N)Cc2ccc(O)cc2)[C@@H](C)O)[C@@H](C)O)[C@@H](C)CC)CSCC(=O)NCCN(C(=O)CCC(=O)NCCOCCOCC(=O)NCCOCCOCC(=O)NCCCC[C@H](NC(=O)CCCCCCCCCCCCCCCCCCC(=O)O)C(=O)O)CCNC(=O)CSC[C@@H](C(=O)NCC(=O)NCC(=O)N2CCC[C@H]2C(=O)N[C@@H](CO)C(=O)N[C@@H](CO)C(=O)NCC(=O)N[C@@H](C)C(=O)N2CCC[C@H]2C(=O)N2CCC[C@H]2C(=O)N2CCC[C@H]2C(=O)N[C@@H](CO)C(N)=O)NC(=O)[C@H](CC(C)C)NC(=O)[C@H](CC(C)C)NC(=O)[C@H](Cc2ccc(O)cc2)NC(=O)[C@H](CCC(=O)O)NC1=O [TG52] (H-Y[Aib]QGT[Phe(2-F)]TSDYSI[Iva]LDKK(Ac)AQ[Aib]CFIEYLLCGGPSSGAPPPS-NH2; linker 21-28 via X1)
EC50 (GLP-1R [1]): 112 pM
AUC(0-inf) (in vivo; male, SD, iv, 1 mg/kg): 289 µg·h/mL
AUC(0-t) (in vivo; male, SD, iv, 1 mg/kg): 265 µg·h/mL
MRT (in vivo; male, SD, iv, 1 mg/kg): 26.5 h
Vd (in vivo; male, SD, iv, 1 mg/kg): 0.092 L/kg
clearance (in vivo; male, SD, iv, 1 mg/kg): 3.48 mL/h/kg
half-life (in vivo; male, SD, iv, 1 mg/kg): 21.5 h
bioavailability (in vivo; male, SD, sc): 50.9%
AUC(0-inf) (in vivo; male, SD, sc, 3 mg/kg): 570 µg·h/mL
AUC(0-t) (in vivo; male, SD, sc, 3 mg/kg): 410 µg·h/mL
CL/F (in vivo; male, SD, sc, 3 mg/kg): 5.26 mL/h/kg
Cmax (in vivo; male, SD, sc, 3 mg/kg): 8210 ng/mL
MRT (in vivo; male, SD, sc, 3 mg/kg): 42.8 h
Tmax (in vivo; male, SD, sc, 3 mg/kg): 24 h
half-life (in vivo; male, SD, sc, 3 mg/kg): 26.4 h
AUC0-t /AUC0-inf (in vivo; iv, 1 mg/kg): 0.918
Kel (in vivo; iv, 1 mg/kg): 0.0323 h⁻¹
AUC0-t /AUC0-inf (in vivo; sc, 3 mg/kg): 0.834
Vz/F (in vivo; sc, 3 mg/kg): 0.200 L/kg
serum albumin binding capacity (GLP-1R [2]): a stronger serum albumin binding capacity
EC50 (GLP-1R [2]; EC50 (pM) 10% FBS, 10% FBS): 861 pM
EC50 (GLP-1R [2]; 0% FBS, read-out: EC50 (pM) 0% FBS): 13.1 pM

— EP4790066A1, “GLP-1R/GIPR/GCGR TRIPLE AGONIST ANALOGUE AND USE THEREOF” (Shenzhen Bay Laboratory, priority 2023, dated 2025)
